ChEMBL document CHEMBL1132515, “4-Chlorobenzyl sulfonamide and sulfamide derivatives of histamine homologues: the design of potent histamine H3 receptor antagonists” (Bioorg Med Chem Lett, 1999)

Key:
[1] = biological target: Histamine H3 receptor (Cavia porcellus) (UniProt Q9JI35); assay: Inhibition of neurogenic contractions in guinea pig ileum mediated by histamine H3 receptors; type: functional, tissue-based
[2] = biological target: Histamine H3 receptor (Cavia porcellus, UniProt Q9JI35); assay: Ability to displace [3H]R-alpha-methylhistamine from histamine H3 receptor in guinea pig ileum longitudinal muscle myenteric plexus(LMMP) membranes; type: tissue-based
Sequence of Histamine H3 receptor (Q9JI35 whole entry): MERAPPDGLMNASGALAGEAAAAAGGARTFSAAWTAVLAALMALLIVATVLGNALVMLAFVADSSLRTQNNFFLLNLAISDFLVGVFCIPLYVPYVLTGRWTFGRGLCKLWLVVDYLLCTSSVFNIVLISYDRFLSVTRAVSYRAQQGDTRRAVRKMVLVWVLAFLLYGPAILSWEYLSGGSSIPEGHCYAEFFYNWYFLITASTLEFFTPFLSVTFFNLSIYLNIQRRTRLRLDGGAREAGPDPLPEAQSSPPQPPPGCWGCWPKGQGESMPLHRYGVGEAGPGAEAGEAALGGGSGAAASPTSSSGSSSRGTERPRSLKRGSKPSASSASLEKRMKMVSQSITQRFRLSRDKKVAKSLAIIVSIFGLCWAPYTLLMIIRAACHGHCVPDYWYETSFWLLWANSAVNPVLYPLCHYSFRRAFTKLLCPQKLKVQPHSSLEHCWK

Sequence of Histamine H3 receptor (Cavia porcellus) (Q9JI35 whole entry): as above

pKB [1]	Ki [2] [nM]	Structure (SMILES)
8.1		O=S(=O)(Cc1ccc(-c2ccccc2)cc1)NCCCCc1c[nH]cn1
8.49		O=S(=O)(NCCCCc1c[nH]cn1)NCc1ccc(I)cc1
8.32		O=S(=O)(NCCCCc1c[nH]cn1)NCc1ccc(-c2ccccc2)cc1
7.37	13.2	O=S(=O)(NCCCCCCCCc1c[nH]cn1)NCc1ccc(Cl)cc1
6.64		O=S(=O)(Cc1ccc(Cl)cc1)NCCCCCCCCc1c[nH]cn1
< 5		O=S(=O)(NCCCCCCCCCCc1c[nH]cn1)NCc1ccc(Cl)cc1
7.06		COc1ccc(CNS(=O)(=O)NCCCCc2c[nH]cn2)cc1
8.37		O=S(=O)(NCCCCCCCc1c[nH]cn1)NCc1ccc(Cl)cc1
8.77		O=S(=O)(NCCCCCCc1c[nH]cn1)NCc1ccc(Cl)cc1
8.68		O=S(=O)(NCCCCc1c[nH]cn1)NCc1ccc(Cl)cc1
8.01		O=S(=O)(Cc1ccc(Cl)cc1)NCCCCCCc1c[nH]cn1
7.89		O=S(=O)(Cc1ccc(C(F)(F)F)cc1)NCCCCc1c[nH]cn1
7.36		O=S(=O)(Cc1ccc(Cl)cc1)NCCCCCCCc1c[nH]cn1
8.2		O=S(=O)(NCCCCCc1c[nH]cn1)NCc1ccc(Cl)cc1
< 5		O=S(=O)(Cc1ccc(Cl)cc1)NCCCCCCCCCCc1c[nH]cn1
7.7		O=S(=O)(NCCCCc1c[nH]cn1)NCc1ccc(F)cc1

Further lines, the compound ahead of its results:

Structure (SMILES)	pKB [1]	Ki [2] [nM]
O=S(=O)(Cc1ccc(Cl)cc1)NCCCc1c[nH]cn1	6.29	
O=S(=O)(NCCCCc1c[nH]cn1)NCc1ccc(C(F)(F)F)cc1	8.48	2.63
O=S(=O)(Cc1ccc(Br)cc1)NCCCCc1c[nH]cn1	7.68	
O=S(=O)(NCCCc1c[nH]cn1)NCc1ccc(Cl)cc1	7.04	
O=S(=O)(NCCCCc1c[nH]cn1)NCc1ccccc1	7.01	
O=S(=O)(NCCCCc1c[nH]cn1)NCc1ccccc1Cl	6.42	
O=S(=O)(Cc1ccc(F)cc1)NCCCCc1c[nH]cn1	7.32	
O=S(=O)(Cc1ccc(Cl)cc1)NCCCCCc1c[nH]cn1	7.33	
O=S(=O)(Cc1ccc(Cl)cc1)NCCCCc1c[nH]cn1	8.62	
O=S(=O)(NCCCCc1c[nH]cn1)NCc1ccc(Br)cc1	8.91	
O=S(=O)(NCCCCc1c[nH]cn1)NCc1cccc(Cl)c1	7.86	
